In patent EP0333517A2, “Method and agent for inhibiting the binding of human polymorphonuclear leukocytes to endothelium and compositions therefor” (THE ROCKEFELLER UNIVERSITY, priority 1988, dated 1989):
Residues, ends and D or L forms follow the SMILES beside them.

Columns and labels:
[1] = test system: binding of PMN to endothelial cells; experiment: Binding of phorbol dibutyrate-stimulated PMN to endothelial cells (binding assessed by microscopy); format: cell-based; conditions: indicated doses (Figures 3 and 4, not given); human umbilical cord endothelial cells; 37°C for 15 min
Experimental: This example illustrates that the method of the invention can be used to inhibit the binding of stimulated PMN to human endothelial cells.
The experiments are conducted as follows. Purified human PMN were stimulated for 15 min. with 300 ng/ml of phorbol dibutyrate. This stimulation is necessary to enable PMN to bind, and mimics the stimulation of PMN at sites of inflammation. Endothelial cells were isolated from human umbilical cords by standard methods [Pawlowski et al., Proc. Natl. Aca. Sci., 82, 8202 (1985)] and were cultivated on fibronectin-coated tissue culture surfaces to confluence. […] PMN were washed and combined with the indicated doses of Arg-Leu-Leu-Pro-Gly-Gly-Leu-Gln-Gln-Gly-Arg-Gly- Asp-Ala-Val-Gly-Pro-Glu-Arg-Gly-Cys (Pep63) in Figure 3, or with the indicated doses of Gly-Gln-Gln-His-His-Leu-Gly-Gly-Ala-Lys-Gln-Ala-Gly-Asp-Val (G15) in Figure 4. The cells were then added to the endothelium and incubated at 37°C for 15 min. Unattached PMN were then washed away and the binding was assessed by microscopy.

[2] = test system: binding of PMN to fibrinogen; experiment: Binding of phorbol dibutyrate-stimulated PMN to fibrinogen-coated surfaces (adherent cells counted by phase contrast microscopy); format: cell-based, human; conditions: 2 mg/ml of synthetic peptide; PMN stimulated with 300 ng/ml phorbol dibutyrate; 20 min at 0°C then 30 min at 37°C; Figure 1
Experimental: This example illustrates that the method of the invention can be used to inhibit binding of stimulated PMN to fibrinogen-coated surfaces. Figure 1 illustrates the level of inhibition of binding by incubation with monoclonal antibodies against CD11b/CD18 and with the peptide L10, and Figure 2 illustrates the dose dependence of this inhibition.
Details of the experiments are as follows. Purified human PMN were stimulated for 15 min. with 300 ng/ml of phorbol dibutyrate. This stimulation is necessary to enable PMN to bind, and mimics the stimulation of PMN at sites of inflammation. Culture wells were coated with fibrinogen or human serum albumin by incubating 1 mg/ml of these proteins with the culture surfaces for 1 hr. at 20°C. The PMN were then washed and added to culture wells coated with fibrinogen in the presence of 10µg/ml of various monoclonal antibodies or 2 mg/ml of synthetic peptides. PMN were allowed to settle onto the surface for 20 min. at 0°C, then were warmed to 37°C for 30 min. The surfaces were then washed and the number of cells adherent were counted by phase contrast microscopy.

SMILES	inhibition of the binding of PMN to endothelial cells [1]	binding of PMN to fibrinogen [2]
CC(C)C[C@H](NC(=O)[C@H](Cc1c[nH]cn1)NC(=O)[C@H](Cc1c[nH]cn1)NC(=O)[C@H](CCC(N)=O)NC(=O)[C@H](CCC(N)=O)NC(=O)CN)C(=O)NCC(=O)NCC(=O)N[C@@H](C)C(=O)N[C@@H](CCCCN)C(=O)N[C@@H](CCC(N)=O)C(=O)N[C@@H](C)C(=O)NCC(=O)N[C@@H](CC(=O)O)C(=O)N[C@H](C(=O)O)C(C)C [G15, Gly-Gln-Gln-His-His-Leu-Gly-Gly-Ala-Lys-Gln-Ala-Gly-Asp-Val] (H-GQQHHLGGAKQAGDV-OH)	dose dependence of inhibition	–
CC(C)C[C@H](N)C(=O)NCC(=O)NCC(=O)N[C@@H](C)C(=O)N[C@@H](CCCCN)C(=O)N[C@@H](CCC(N)=O)C(=O)N[C@@H](C)C(=O)NCC(=O)N[C@@H](CC(=O)O)C(=O)N[C@H](C(=O)O)C(C)C [L10, Leu-Gly-Gly-Ala-Lys-Gln-Ala-Gly-Asp-Val] (H-LGGAKQAGDV-OH)	–	strongly inhibits binding
CC(C)C[C@H](NC(=O)CNC(=O)CNC(=O)[C@@H]1CCCN1C(=O)[C@H](CC(C)C)NC(=O)[C@H](CC(C)C)NC(=O)[C@@H](N)CCCNC(=N)N)C(=O)N[C@@H](CCC(N)=O)C(=O)N[C@@H](CCC(N)=O)C(=O)NCC(=O)N[C@@H](CCCNC(=N)N)C(=O)NCC(=O)N[C@@H](CC(=O)O)C(=O)N[C@@H](C)C(=O)N[C@H](C(=O)NCC(=O)N1CCC[C@H]1C(=O)N[C@@H](CCC(=O)O)C(=O)N[C@@H](CCCNC(=N)N)C(=O)NCC(=O)N[C@@H](CS)C(=O)O)C(C)C [Pep63] (H-RLLPGGLQQGRGDAVGPERGC-OH)	dose dependence of inhibition	–
